Broadly, the IC50 is the point on the concentration scale where inhibition reaches its midpoint.

SMILES strings stand for the structures. Where a name gives a salt, the structure may show the parent alone.

Chain of TrkA (P04629 440-796 limits assumed): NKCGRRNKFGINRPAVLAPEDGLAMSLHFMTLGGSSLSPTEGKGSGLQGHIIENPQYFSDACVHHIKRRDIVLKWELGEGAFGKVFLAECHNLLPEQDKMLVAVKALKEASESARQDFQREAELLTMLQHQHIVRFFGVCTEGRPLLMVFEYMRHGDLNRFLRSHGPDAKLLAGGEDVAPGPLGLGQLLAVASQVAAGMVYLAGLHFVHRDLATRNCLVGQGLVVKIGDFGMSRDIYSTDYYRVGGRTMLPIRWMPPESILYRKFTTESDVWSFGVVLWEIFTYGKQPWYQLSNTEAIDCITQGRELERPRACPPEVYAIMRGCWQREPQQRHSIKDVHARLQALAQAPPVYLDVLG

This test concerns the target TrkA (Homo sapiens, UniProt P04629). Put plainly: TrkA LanthaScreen Eu Kinase Binding Assay. The arrangement: 6HIS tagged cytoplasmic domain from Invitrogen, Catalog No. PV3144; purchased Invitrogen PV3144. The settings on record: averaged IC50; TR-FRET binding assay; read-out: TrkA Enzyme IC50. The procedure: TrkA binding activity was determined in a TrkA LanthaScreen™ Eu Kinase Binding Assay. 5 nM His-tagged recombinant human TrkA (6HIS tagged cytoplasmic domain from Invitrogen, Catalog No. PV3144) was incubated with 4 nM Alexa-Fluor® Tracer 236 (Invitrogen Cat. No. PV5592), 2 nM biotinylated anti-His (Invitrogen Cat. No. PV6090), and 2 nM europium-labeled Streptavidin (Invitrogen Cat. No. PV5899), in buffer (25 mM MOPS, pH 7.5, 5 mM MgCl2, 0.005% Triton X-100). Three fold serial dilutions of compounds of the invention in DMSO were added to a final percentage of 2% DMSO. After 60-minute incubation at 22° C., the reaction was measured using the EnVision mutlimode plate reader (PerkinElmer) via TR-FRET dual wavelength detection at […]. The percent of control was calculated using a ratiometric emission factor. The IC50 values were determined by fitting a four parameter model to the percent of control data.
Table A provides averaged IC50 values for compounds of the invention when tested in the assay of Example A, where A represents an averaged IC50 value<100 nM; B represents an averaged IC50 value from 100 to 1,000 nM; and C represents an averaged IC50 value from 1,000 to 10,000 nM.
For orientation: In TR-FRET formats the signal depends on donor and acceptor labels being close together.
With `COCCCc1cc(Cl)c(Cl)cc1NC(=O)Nc1c(C)c(OC[C@H]2CN(C)CCO2)nn1-c1ccccc1` [Example 32, (R)-1-(4,5-dichloro-2-(3-methoxypropyl)phenyl)-3-(4-methyl-3-((4-methylmorpholin-2-yl)methoxy)-1-phenyl-1H-pyrazol-5-yl)urea], the IC50 is under 100 nM. To `COCCCc1cc(F)c(C(F)(F)F)cc1NC(=O)Nc1c(C)c(OC)nn1-c1ccccc1` [Example 48, 1-(4-fluoro-2-(3-methoxypropyl)-5-(trifluoromethyl)phenyl)-3-(3-methoxy-4-methyl-1-phenyl-1H-pyrazol-5-yl)urea] belongs under 100 nM; to `CNC(=O)c1nn(-c2ccccc2)c(NC(=O)Nc2cc(Cl)c(Cl)cc2CC(F)(F)COC)c1C` [Example 27, 5-(3-(4,5-dichloro-2-(2,2-difluoro-3-methoxypropyl)phenyl)ureido)-N,4-dimethyl-1-phenyl-1H-pyrazole-3-carboxamide], under 100 nM; to `COCCOc1nc(C(F)(F)F)ccc1NC(=O)Nc1c(C)c(-c2cnn(C)c2)nn1-c1ccccc1` [Example 7, 1-(1′,4-dimethyl-1-phenyl-1H,1′H-[3,4′-bipyrazol]-5-yl)-3-(2-(2-methoxyethoxy)-6-(trifluoromethyl)pyridin-3-yl)urea], 100 to 1000 nM.

Consider `COCCCc1cc(Cl)c(Cl)cc1NC(=O)Nc1c(C)c(OC[C@@H]2CNCCO2)nn1-c1ccccc1` [Example 38, (S)-1-(4,5-dichloro-2-(3-methoxypropyl)phenyl)-3-(4-methyl-3-(morpholin-2-ylmethoxy)-1-phenyl-1H-pyrazol-5-yl)urea hydrochloride], for which the IC50 was under 100 nM. To `COCCCc1cc(Cl)c(Cl)cc1NC(=O)Nc1c(C)c(OCC2CN(C)C2)nn1-c1ccccc1` [Example 37, 1-(4,5-dichloro-2-(3-methoxypropyl)phenyl)-3-(4-methyl-3-((1-methylazetidin-3-yl)methoxy)-1-phenyl-1H-pyrazol-5-yl)urea] belongs under 100 nM; to `COCCCc1cc(Cl)c(Cl)cc1NC(=O)Nc1c(C)c(OC[C@@H]2CCCNC2)nn1-c1ccccc1` [Example 47, (R)-1-(4,5-dichloro-2-(3-methoxypropyl)phenyl)-3-(4-methyl-1-phenyl-3-(piperidin-3-ylmethoxy)-1H-pyrazol-5-yl)urea hydrochloride], under 100 nM; to `COCCCc1cc(Cl)c(Cl)cc1NC(=O)Nc1c(C)c(OCCN2CCNCC2)nn1-c1ccccc1` [Example 39, 1-(4,5-dichloro-2-(3-methoxypropyl)phenyl)-3-(4-methyl-1-phenyl-3-(2-(piperazin-1-yl)ethoxy)-1H-pyrazol-5-yl)urea dihydrochloride], under 100 nM.

As to `COCCCc1cc(Cl)c(Cl)cc1NC(=O)Nc1c(C)c(C2(C#N)CCOCC2)nn1-c1ccccc1` [Example 14, 1-(3-(4-cyanotetrahydro-2H-pyran-4-yl)-4-methyl-1-phenyl-1H-pyrazol-5-yl)-3-(4,5-dichloro-2-(3-methoxypropyl)phenyl)urea], the IC50 is under 100 nM. In the case of `COCCCc1cc(Cl)c(Cl)cc1NC(=O)Nc1c(C)c(C(=O)NC2CCN(C)CC2)nn1-c1ccccc1` [Example 33, 5-(3-(4,5-dichloro-2-(3-methoxypropyl)phenyl)ureido)-4-methyl-N-(1-methylpiperidin-4-yl)-1-phenyl-1H-pyrazole-3-carboxamide] it was under 100 nM; in that of `CNC(=O)c1nn(-c2ccccc2)c(NC(=O)Nc2cc(C(F)(F)F)c(F)cc2CCCOC)c1C` [Example 19, 5-(3-(4-fluoro-2-(3-methoxypropyl)-5-(trifluoromethyl)phenyl)ureido)-N,4-dimethyl-1-phenyl-1H-pyrazole-3-carboxamide], under 100 nM; in that of `COCCOc1ncc(C(F)(F)F)cc1NC(=O)Nc1c(C)c(-c2cnn(C)c2)nn1-c1ccccc1` [Example 4, 1-(1′,4-dimethyl-1-phenyl-1H,1′H-[3,4′-bipyrazol]-5-yl)-3-(2-(2-methoxyethoxy)-5-(trifluoromethyl)pyridin-3-yl)urea], 100 to 1000 nM. In the case of `COCCCc1cc(Cl)c(Cl)cc1NC(=O)Nc1c(C)c(OCC2(F)CCNCC2)nn1-c1ccccc1` [Example 45, 1-(4,5-dichloro-2-(3-methoxypropyl)phenyl)-3-(3-((4-fluoropiperidin-4-yl)methoxy)-4-methyl-1-phenyl-1H-pyrazol-5-yl)urea hydrochloride] it was under 100 nM; in that of `COCCCc1cc(Cl)c(Cl)cc1NC(=O)Nc1c(C)c(C2CCN(C)CC2)nn1-c1ccccc1` [Example 18, 1-(4,5-dichloro-2-(3-methoxypropyl)phenyl)-3-(4-methyl-3-(1-methylpiperidin-4-yl)-1-phenyl-1H-pyrazol-5-yl)urea], under 100 nM; in that of `COCCCc1cc(Cl)c(Cl)cc1NC(=O)Nc1c(C)c(OCCN2CCN(C(=O)OC(C)(C)C)CC2)nn1-c1ccccc1` [Example 49, tert-butyl 4-(2-((5-(3-(4,5-dichloro-2-(3-methoxypropyl)phenyl)ureido)-4-methyl-1-phenyl-1H-pyrazol-3-yl)oxy)ethyl)piperazine-1-carboxylate], under 100 nM. To `COCCOc1nc(C)c(Cl)cc1NC(=O)Nc1c(C)c(-c2cnn(C)c2)nn1-c1ccccc1` [Example 6, 1-(5-chloro-2-(2-methoxyethoxy)-6-methylpyridin-3-yl)-3-(1′,4-dimethyl-1-phenyl-1H,1′H-[3,4′-bipyrazol]-5-yl)urea] belongs under 100 nM. Regarding `COCCOc1nc(C)ccc1NC(=O)Nc1c(C)c(-c2cnn(C)c2)nn1-c1ccccc1` [Example 1, 1-(1′,4-dimethyl-1-phenyl-1H,1′H-[3,4′-bipyrazol]-5-yl)-3-(2-(2-methoxyethoxy)-6-methylpyridin-3-yl)urea], the 50% inhibitory concentration (IC50) fell in the range of 1000 to 10000 nM. To `COCCOc1ccc(C(F)(F)F)cc1NC(=O)Nc1c(C)c(-c2cnn(C)c2)nn1-c1ccccc1` [Example 2, 1-(1′,4-dimethyl-1-phenyl-1H,1′H-[3,4′-bipyrazol]-5-yl)-3-(2-(2-methoxyethoxy)-5-(trifluoromethyl)phenyl)urea] belongs under 100 nM. On to `COCCOc1ccc(Cl)cc1NC(=O)Nc1c(C)c(-c2cnn(C)c2)nn1-c1ccccc1` [Example 12, 1-(5-chloro-2-(2-methoxyethoxy)phenyl)-3-(1′,4-dimethyl-1-phenyl-1H,1′H-[3,4′-bipyrazol]-5-yl)urea], for which the IC50 was under 100 nM.

Source of the values: patent US9790210B2, “N-(monocyclic aryl),N'-pyrazolyl-urea, thiourea, guanidine and cyanoguanidine compounds as TrkA kinase inhibitors” (Array BioPharma Inc., priority 2012, dated 2017).
